Assay results taken from US20080235824A1, “Use of Esterase Genes as Selectable Markers for Transforming Plant Cells” (priority 2006, published 2008).

What was measured:
[1] = tested on: tomato cultivar Micro-Tom leaf explants; experiment: Agrobacterium transformation of tomato with selection on detergent or kanamycin; assay type: cell-based, Lycopersicon esculentum; settings: tomato Micro-Tom, pIPG768 nptII, 100 micrograms/ml kanamycin, Exp. 1, 98 explants; for Transformation frequency (%): confirmed by PCR
Source text: Transgenic tomato (Lycopersicon esculentum) cultivar “Micro-Tom” plants were created using the Agrobacterium tumefaciens DNA delivery method [Riggs et al., 2001; Sun et al., 2006] using pIPG768. Selection was either on 1% Tween 20 added to both shoot and root regeneration media. As controls for comparative purposes, 100 micrograms/ml kanamycin was used.

[2] = tested on: tobacco cultivar Xanthi leaf explants; experiment: Agrobacterium transformation of tobacco with selection on detergent or kanamycin; assay type: cell-based, Nicotiana tabacum; settings: tobacco Xanthi, pIPG786 nptII, 100 micrograms/ml kanamycin, 235 explants
Source text: Transgenic tobacco (Nicotiana tabacum) cultivar “Xanthi” plants were created using the Agrobacterium tumefaciens DNA delivery method [Horsch et al., 1985] using pIPG833. Selection was on 1% or on 0.05% Tween 20 added to both shoot and root regeneration media. As a control for comparative purposes, pIPG786 was used (carrying the nptII gene for kanamycin resistance) for transformation and 100 micrograms/ml kanamycin was used for selection.
Transgenic tobacco (Nicotiana tabacum) cultivar “Xanthi” plants were created using the Agrobacterium tumefaciens DNA delivery method [Horsch et al., 1985] using pIPG833. Selection was on 1% or on 0.05% Span 20 added to both shoot and root regeneration media.
Transgenic tobacco (Nicotiana tabacum) cultivar “Xanthi” plants were created using the Agrobacterium tumefaciens DNA delivery method [Horsch et al., 1985] using pIPG875. Selection was on 1% Span 20 added to the shoot regeneration medium and 0.05% Span 20 added to the root regeneration medium.

[3] = tested on: geranium petiole explants; experiment: Survival of geranium petiole explants on regeneration medium with detergents; assay type: cell-based, Pelargonium X hortorum; settings: for Survival of geranium petiole explants on regeneration medium: surviving/total explants
Procedure: Tween 20, a nonionic, fatty acid ester detergent, was evaluated as a potential selective agent for use in geranium (Pelargonium X hortorum) transformation experiments by placing geranium petiole explants into tissue culture with the addition to Tween 20 to the regeneration (shooting) medium normally used in geranium transformations (Robichon et al., 1995). Tween 20 was added at three concentrations: 1%, 0.1% and 0.01%. Each treatment consisted of 40 sterilized petiole explants placed in four tissue culture plates carrying 10 explants each. Survival of the explants was assayed weekly over four weeks on these media. Potential selective agent Span 20, also a nonionic, fatty acid ester detergent, was similarly evaluated, except that concentrations of 1%, 0.5% and 0.25% were evaluated over a twelve week period of time. The nonionic detergent Triton X-100, which is not a fatty acid ester detergent, was included for comparative purposes.

tomato leaf explants = experiment: Survival of tomato leaf explants on regeneration medium with detergents; assay type: cell-based, Lycoperisicon esculentum; settings: 1% detergent; for Survival of tomato leaf explants on regeneration medium: surviving/total explants
Procedure: Tween 20 was similarly evaluated as a potential selective agent for use in tomato (Lycoperisicon esculentum) transformations by placing tomato leaf explants placed into tissue culture; Tween 20 was added to tomato regeneration (shooting) medium normally used in tomato transformations (Riggs et al., 2001) at a 1% concentration. Each treatment consisted of 40 sterilized leaf explants placed in four tissue culture plates carrying 10 explants each. Survival of the explants was assayed weekly over four weeks on these media.

[4] = Phenol red lipase/esterase assay with crude plant leaf extracts; assay type: biochemical; settings: transiently plant-expressed enzyme or positive control
Source text: In this Figure, the first tube on the left (labeled “Buffer”) contains phenol red buffer and Tween 20 (the dark red color appears dark in this black and white figure); the second tube to the right (“SL”) has 4 Units of Sigma porcine pancreatic lipase added (the bright yellow color appears light); the third tube to the right (labeled “731”) has a twenty microliter droplet of a crude tomato plant leaf extract from leaves inoculated 4 days earlier with GV2260 carrying “empty” (ie., no lipase gene) expression vector pIPG731 (the dark red color appears dark), and the fourth tube to the right (“768 WI”) has a twenty microliter droplet of crude tomato plant leaf extract from leaves inoculated four days earlier with GV2260 carrying cloned bovine pregastric esterase expressed in pIPG768 (the bright yellow color appears light). Tomato leaf tissue particles may be seen floating in the third and fourth tubes to the right. […] The photo was taken 16 hrs. after start of the assay.
For transient expression assays of bovine PGE, the plant transformation and expression vectors constructed in Example 12 were moved into A. tumefaciens strain GV2260 by either electroporation or bacterial conjugation as described (Kapila et al., 1997). GV2260 carrying pIPG745 or pIPG746 was used for transient expression in tobacco, pepper, tomato, citrus, geranium, and rice plants as described (Kapila et al. 1997; Duan et al., 1999; Wroblewski et al. 2005). Cultures of Agrobacterium harboring the constructs of interest were grown in minimal medium in the presence of acetosyringone to induce the Agrobacterium vir genes. The optical density of the cultures was maintained at 0.008 for pepper and tomato and at 0.25 for citrus, geranium and rice. Strain GV2260 was flooded into healthy, young, fully expanded leaves of vigorous plants into the apoplastic space through open stomata by injection using a tuberculin syringe without a needle, flooding entire leaves. After 3-4 days, two grams of leaf tissue (fresh weight), was ground in liquid nitrogen to a fine powder, and 0.5 ml of ice cold phosphate buffered saline (PBS; 137 mM NaCl, 2.7 mM KCl, 10 mM potassium phosphate, pH 7.4) was added and mixed thoroughly at 4 C. The mixture was mixed on an orbital shaker at 4 C for 30 minutes, and plant debris was pelleted at 10,000×g for 15 minutes and discarded. The supernatants from these crude plant leaf extracts were directly used in lipase/esterase assays.
The second activity assay was a phenol red lipase/esterase assay using tributyrin, olive oil or Tween 20 as substrates as described by Singh et al. (2006), except that liquid medium, rather than solidified agar medium, was used. Twenty microliter droplets of crude plant leaf extracts and the positive control were placed in the tributyrin/phenol red medium containing tributyrin, olive oil or Tween 20 and incubated at 30 C overnight. […] Transient expression of bovine PGE was confirmed in tobacco, pepper, tomato, citrus, geranium, and rice plants.
For transient expression assays, the plant transformation and expression vectors constructed in Example 15 were moved into A. tumefaciens strain GV2260 by electroporation. GV2260 carrying pIPG823 was used for transient expression in tobacco and geranium plants exactly as described in Example 20. The supernatants from crude plant leaf extracts were directly used in phenol red lipase/esterase assays using tributyrin and olive oil as substrates exactly as described in Example 20.

Molecule: NC[C@H]1O[C@H](O[C@H]2[C@H](O)[C@@H](O[C@H]3O[C@H](CO)[C@@H](O)[C@H](N)[C@H]3O)[C@H](N)C[C@@H]2N)[C@H](O)[C@@H](O)[C@@H]1O [kanamycin, reference compound]
- No. of independent calli forming shoots [1]: 40
- No. of rooted shoots [1]: 40
- Transformation frequency (%) [1]: 1%
- Transformation frequency (%) ([1]; listed as Kanamycin): 1%
- No. of independent calli forming shoots [2]: 55
- No. of rooted shoots [2]: 55
- Transformation frequency (%) ([2]; confirmed by PCR): 19%

Molecule: Triton X-100
- Survival of geranium petiole explants on regeneration medium ([3]; 0.01% detergent, Week 1): 39/40
- Survival of geranium petiole explants on regeneration medium ([3]; 0.01% detergent, Week 2): 39/40
- Survival of geranium petiole explants on regeneration medium ([3]; 0.01% detergent, Week 3): 39/40
- Survival of geranium petiole explants on regeneration medium ([3]; 0.01% detergent, Week 4): 14/40
- Survival of geranium petiole explants on regeneration medium ([3]; 0.1% detergent, Week 1): 40/40
- Survival of geranium petiole explants on regeneration medium ([3]; 0.1% detergent, Week 2): 40/40
- Survival of geranium petiole explants on regeneration medium ([3]; 0.1% detergent, Week 3): 40/40
- Survival of geranium petiole explants on regeneration medium ([3]; 0.1% detergent, Week 4): 9/40
- Survival of geranium petiole explants on regeneration medium ([3]; 1% detergent, Week 1): 39/40
- Survival of geranium petiole explants on regeneration medium ([3]; 1% detergent, Week 2): 39/40
- Survival of geranium petiole explants on regeneration medium ([3]; 1% detergent, Week 3): 37/40
- Survival of geranium petiole explants on regeneration medium ([3]; 1% detergent, Week 4): 19/40
- Killing of geranium explants in tissue culture (in words) ([3]; summary of Table 1): much less efficient and much more variable in killing
- Survival of tomato leaf explants on regeneration medium (tomato leaf explants; Week 1): 40/40
- Survival of tomato leaf explants on regeneration medium (tomato leaf explants; Week 2): 40/40
- Survival of tomato leaf explants on regeneration medium (tomato leaf explants; Week 3): 10/40
- Survival of tomato leaf explants on regeneration medium (tomato leaf explants; Week 4): 7/40
- Killing of tomato explants in tissue culture (in words) (tomato leaf explants; summary of Table 2): both less effective and unpredictable in killing

B1: bovine PGE: bovine pregastric esterase, cloned from calf salivary glands and expressed in plants (protein)
chain: MWWLLVTVCFIHMSGNAFCFLGKIAKNPEASMNVSQMISYWGYPSEMHKVITADGYILQVYRIPHGKNNANHLGQRPVVFLQHGLLGSATNWISNLPKNSLGFLLADAGYDVWLGNSRGNTWAQEHLYYSPDSPEFWAFSFDEMAEYDLPSTIDFILRRTGQKKLHYVGHSQGTTIGFIAFSTNPTLAEKIKVFYALAPVATVKYTKSLFNKLALIPHFLFKIIFGDKMFYPHTFLEQFLGVEMCSRETLDVLCKNALFAITGVDNKNFNMSRLDVYIAHNPAGTSVQNTLHWRQAVKSGKFQAFDWGAPYQNLMHYHQPTPPIYNLTAMNVPIAVWSADNDLLADPQDVDLLLSKLSNLIYHKEIPNYNHLDFIWAMDAPQEVYNEIVSLMAEDKKEL
modifications: Bovine pregastric esterase cloned by IPG, translation product, with native leader and two amino acids added to form an ER retention signal sequence
notes: bovine pregastric esterase, cloned from calf salivary glands and expressed in plants
- Substrates utilized in phenol red lipase/esterase assay [4]: utilized all three substrates: tributyrin, olive oil and Tween 20

B2: nematode triglyceride lipase-cholesterol esterase: C. elegans triglyceride lipase-cholesterol esterase expressed in plants (protein)
chain: MKSLLLLFLLFLHTLCENVTTPNSEEDTDMTATPSTITPLLSTAQNPSLPKTSKLPLALKTPVPTFPFSSLATSDWLSSMPTIQTLLPPPLPLTTLEVPENENFGFTSLAPLWTLPTQPPAWSPMLDSPIKPIQNSMFPTFPTMPTLPTLPTLAPFTFPTLPPPTTMKPLNITIDPEALMDVPEIITHWGYPVETHKVVTVDGYILTLHRIPHSKNETSKSASKTPKPVVFLQHGLLCTSSIWLLNLPRQSAGYIFADQGYDVWLGNMRGNTYSKEHTRMTSADRRFWKFSWEEMARYDLPAMINYALKTTKRQNLYYVGHSQGALTMFAKMSEDPEMSKKIRKFFAMAPVARMSHVKGLFQNLGQIYEQYNLVYQVFGDGEFLTNNIFTKLLTDIFCDQAVNNPLCENFIFAVSGPNSNQFNNSRIGIYLAHNPAGTSSRNILHFAQMVKKKRMSRFDHGKDLNLKIYGAPSPPEYDIRKINSSIYLFYSDFDWLANPKDVEGFLIPMLPSKTLKKATKLRDFNHNDFLWGMRARKEIYDKIINTIKLDQRRVKLQNSMERFFERQSRNPTSGLDEETMMRLRNETMNLD
modifications: Caenorhabditis elegans
notes: C. elegans triglyceride lipase-cholesterol esterase expressed in plants
- Substrates utilized in phenol red lipase/esterase assay [4]: utilized tributyrin and olive oil
